Patent US7067290B2, “Method for production of polyketides” (Kosan Biosciences Incorporated, priority 2002, dated 2006)

Assay: pH stability of triketide lactones in fermentation supernatant
Format: physicochemical
Details: pH values above 6–8 (FIG. 1)
Procedure: Samples were centrifuged to remove cells and insoluble media components. If necessary, supernatants were diluted in 1:1 acetonitrile-water with 0.1% acetic acid. Samples were analyzed by HPLC-MS/MS, quantitating by comparison with an internal analytical standard of 2,4-dimethyl-3-hydroxyoctanoic acid δ-lactone (“P-TKL”). In cases where the purity of the analytic standard was doubtful, titers were renorted as arbitrary units. Samples were injected onto a C18 reversed-phase HPLC column and eluted with a gradient of acetonitrile in water containing 0.1% formic acid. Triketide lactones were detected using multiple reaction monitoring of the following MS/MS transitions: TKL: m/z 173 to 109; CM-TKL: m/z 193 to 119; V-TKL: m/z 171 to 107; and P-TKL: m/z 181 to 123.
To test the stability of CM-TKL and V-TKL in fermentation supernatant, the following experiment was undertaken. Supernatant from flask cultures was collected at the end of an experiment by centrifugation at 2700×g for 20 minutes. The supernatant was divided into four portions. The pH of the control portion was adjusted to 3.5, and that sample was frozen at −20° C. […] The samples were incubated for 18 hours at 30° C. then analyzed for product as described previously with the data reported as percent of the control.

Structure (SMILES) | stability in fermentation broth
C[C@@H]1[C@H](O)[C@@H](C)C(=O)O[C@@H]1CCl [CM-TKL] | unstable
C=C[C@H]1OC(=O)[C@H](C)[C@@H](O)[C@H]1C [V-TKL] | unstable
